Test results reported in article PMC5404560, “Towards Selective Mycobacterial ClpP1P2 Inhibitors with Reduced Activity against the Human Proteasome” (Antimicrobial Agents and Chemotherapy, 2017).
Converted amounts (≈) assume the structure as drawn. Read-outs that look alike come from different tables or passages of the source. Marks after values point to notes of the source that are not given here.

Columns and labels:
[1] = tested on: M. smegmatis ΔprcAB; assay type: cell-based
[2] = tested on: M. tuberculosis H37Rv; assay: microbe, parasite or virus in culture; assay type: cell-based
[3] = tested on: M. tuberculosis; assay: Bactericidal activity (MBC99.9); assay type: cell-based; settings: Mycobacterium tuberculosis; concentration required to kill 99.9% of the bacterial population
[4] = tested on: Mycobacterium bovis BCG; assay: microbe, parasite or virus in culture; assay type: cell-based; settings: Mycobacterium tuberculosis variant bovis BCG, read-out: MIC50 for Mycobacterium bovis BCG
[5] = MTS cytotoxicity assay, Vero; assay type: cell-based; settings: African green monkey; MTS assay; read-out: GI50, Vero cells
Experimental: (§1) The MTS (Promega) reduction assay was used according to manufacturer's guidelines to assess Vero (ATCC […]) and HepG2 (ATCC HB-8065) cell viability. […] Carbonyl cyanide m-chlorophenylhydrazone (CCCP) was used as a cytotoxic positive control. Cytotoxicity was determined twice in independent experiments.

[6] = tested on: Vero cells; assay: MTS cytotoxicity assay, Vero; assay type: cell-based; settings: fold higher
Experimental: as §1

[7] = MTS cytotoxicity assay, HepG2; assay type: cell-based, human; settings: human; MTS assay; read-out: GI50, HepG2 cells
Experimental: as §1

[8] = tested on: HepG2 cells; assay: MTS cytotoxicity assay, HepG2; assay type: cell-based, human; settings: fold higher
Experimental: as §1

[9] = Log D (octanol/PBS); assay type: physicochemical; settings: pH 7.4, read-out: Log D (measured at pH 7.4)
Experimental: (§2) A parallel artificial-membrane permeability assay (PAMPA) and mouse liver microsome (MLM), human liver microsome (HLM), aqueous solubility, Log D, protein binding, and cytochrome P450 2D6 and 3A4 assays were carried out at Piramal Pharma Solutions.

[10] = Thermodynamic aqueous solubility; assay type: physicochemical; settings: thermodynamic from solid
Experimental: as §2

[11] = Parallel artificial-membrane permeability assay (PAMPA); assay type: in vitro ADME; settings: read-out: PAMPA Pe
Experimental: as §2

[12] = Plasma protein binding, mouse; assay type: in vitro ADME; settings: bound, read-out: Plasma protein binding in mice (%) (converted)
Experimental: as §2

[13] = Plasma protein binding, human; assay type: in vitro ADME; settings: bound, read-out: Plasma protein binding in humans (%) (converted)
Experimental: as §2

[14] = Human liver microsome stability; assay type: in vitro ADME; settings: liver microsomes, read-out: HLM t1/2
Experimental: as §2

[15] = Mouse liver microsome stability; assay type: in vitro ADME; settings: liver microsomes, read-out: MLM t1/2
Experimental: as §2

[16] = molecular target: T1, CYP450 3A4 (Homo sapiens, UniProt P08684); assay: Recombinant cytochrome P450 enzyme assay, 3A4; assay type: in vitro ADME; settings: highest concentration tested 10 μM
T1 construct: Piramal Pharma Solutions (contract laboratory)
Experimental: as §2

[17] = molecular target: T2, CYP450 2D6 (Homo sapiens, UniProt P10635); assay: Recombinant cytochrome P450 enzyme assay, 2D6; assay type: in vitro ADME; settings: highest concentration tested 10 μM
T2 construct: Piramal Pharma Solutions (contract laboratory)
Experimental: as §2

[18] = Intravenous/oral pharmacokinetics and tissue distribution in mice; assay type: in vivo; settings: for Vd: 10 mg/kg
Experimental: Female ICR mice (aged ∼6 to ∼8 weeks; 3 animals per time point) were used for all studies. Studies were performed as per approved internal protocols for animal care and use. Doses were administered as clear solutions in 50% polyethylene glycol 400 (PEG400) plus […] (D5W). Animals were sacrificed by overdose of CO2, and blood was collected through cardiac puncture at 5 min (10 min per os [p.o.]), 30 min, and 1, 2, 4, 8, 16, and 24 h after administration in tubes containing K3 EDTA as an anticoagulant. The samples were centrifuged, and the plasma was separated and stored at −70°C until analysis. Plasma samples were processed and analyzed by LC-tandem MS. Pharmacokinetic parameters were estimated by noncompartmental methods using WinNonlin (version 5.2; Pharsight, CA).

[19] = tested on: panel of 62 proteases; assay: Protease selectivity panel, overall; assay type: biochemical
Experimental: (§3) Protease panel testing was carried out by Reaction Biology Corporation.

[20] = molecular target: Chymase (Homo sapiens, UniProt P23946); assay: Protease panel: Chymase; assay type: biochemical; settings: Table 6; 10-dose response, top 10 μM
Experimental: as §3

[21] = molecular target: Kallikrein 1 (Homo sapiens, UniProt P06870); assay: Protease panel: Kallikrein 1; assay type: biochemical; settings: Table 6; 10-dose response, top 10 μM
Experimental: as §3

[22] = molecular target: Kallikrein 7 (Homo sapiens, UniProt P49862); assay: Protease panel: Kallikrein 7; assay type: biochemical; settings: Table 6; 10-dose response, top 10 μM
Experimental: as §3

[23] = molecular target: T3, Plasma kallikrein (Homo sapiens, UniProt P03952); assay: Protease panel: Plasma kallikrein; assay type: biochemical; settings: Table 6; 10-dose response, top 10 μM
T3 construct: Reaction Biology Corporation (contract testing)
Experimental: as §3

[24] = molecular target: HepG2 proteasome (Homo sapiens, UniProt P20618+P28074); assay: Cell-based proteasome CT-like peptidase inhibition assay (Proteasome-Glo)
Experimental: A cell-based CT-like peptidase assay was performed using the Proteasome-Glo cell-based assay reagent (Promega) according to the manufacturer's guidelines. Briefly, HepG2 cells (10^4 cells/well) were treated with the compounds indicated in the figures for 2 h, followed by incubation with the luminescent substrate for 10 min. Luminescence was detected with a Tecan M200 Pro plate reader.

Kallikrein 1, sequence (P06870 25-262, species assumed): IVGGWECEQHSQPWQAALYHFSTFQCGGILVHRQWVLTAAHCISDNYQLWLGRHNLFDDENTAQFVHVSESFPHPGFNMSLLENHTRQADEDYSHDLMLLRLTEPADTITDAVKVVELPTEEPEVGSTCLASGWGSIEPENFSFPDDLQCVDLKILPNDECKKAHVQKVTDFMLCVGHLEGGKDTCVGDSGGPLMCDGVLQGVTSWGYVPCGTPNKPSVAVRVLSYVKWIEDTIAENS
Chymase, sequence (P23946 22-247, species assumed): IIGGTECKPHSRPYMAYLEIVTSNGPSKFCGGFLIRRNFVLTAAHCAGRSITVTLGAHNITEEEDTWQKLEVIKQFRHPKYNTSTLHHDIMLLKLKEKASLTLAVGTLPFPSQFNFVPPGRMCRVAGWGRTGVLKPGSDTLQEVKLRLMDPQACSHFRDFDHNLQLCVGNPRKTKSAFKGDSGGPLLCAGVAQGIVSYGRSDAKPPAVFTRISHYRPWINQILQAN
T3 sequence (P03952 20-638, species assumed): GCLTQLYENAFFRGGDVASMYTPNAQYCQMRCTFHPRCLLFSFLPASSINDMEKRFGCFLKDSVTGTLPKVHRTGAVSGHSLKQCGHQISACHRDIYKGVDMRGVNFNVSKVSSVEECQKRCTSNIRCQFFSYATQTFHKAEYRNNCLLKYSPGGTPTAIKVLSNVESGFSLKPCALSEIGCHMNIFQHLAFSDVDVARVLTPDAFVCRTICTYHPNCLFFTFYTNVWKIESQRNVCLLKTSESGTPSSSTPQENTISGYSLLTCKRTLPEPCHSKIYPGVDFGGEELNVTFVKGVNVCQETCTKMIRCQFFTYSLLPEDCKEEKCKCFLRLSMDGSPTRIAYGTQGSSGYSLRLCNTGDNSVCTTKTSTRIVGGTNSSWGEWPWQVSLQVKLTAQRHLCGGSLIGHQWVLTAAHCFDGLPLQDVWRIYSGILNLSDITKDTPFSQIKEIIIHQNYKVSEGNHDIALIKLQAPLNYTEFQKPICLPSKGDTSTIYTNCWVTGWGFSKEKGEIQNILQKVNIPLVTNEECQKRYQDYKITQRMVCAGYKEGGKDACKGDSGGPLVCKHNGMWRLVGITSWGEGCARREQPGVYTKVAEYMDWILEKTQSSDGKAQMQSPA
T1 sequence (P08684 whole entry): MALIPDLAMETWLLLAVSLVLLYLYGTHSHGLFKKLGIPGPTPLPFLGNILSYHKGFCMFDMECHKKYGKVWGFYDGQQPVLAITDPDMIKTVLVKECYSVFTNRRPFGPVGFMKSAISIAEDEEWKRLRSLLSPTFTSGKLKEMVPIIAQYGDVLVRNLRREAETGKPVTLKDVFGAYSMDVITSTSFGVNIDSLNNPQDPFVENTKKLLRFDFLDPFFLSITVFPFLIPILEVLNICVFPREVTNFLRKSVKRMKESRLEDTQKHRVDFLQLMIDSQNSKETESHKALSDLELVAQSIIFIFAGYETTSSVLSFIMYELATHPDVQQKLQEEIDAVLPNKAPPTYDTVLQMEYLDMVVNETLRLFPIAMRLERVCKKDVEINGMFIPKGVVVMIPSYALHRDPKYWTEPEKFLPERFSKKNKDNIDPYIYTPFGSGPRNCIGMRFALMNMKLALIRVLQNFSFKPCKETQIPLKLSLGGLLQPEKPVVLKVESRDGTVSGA
T2 sequence (P10635 whole entry): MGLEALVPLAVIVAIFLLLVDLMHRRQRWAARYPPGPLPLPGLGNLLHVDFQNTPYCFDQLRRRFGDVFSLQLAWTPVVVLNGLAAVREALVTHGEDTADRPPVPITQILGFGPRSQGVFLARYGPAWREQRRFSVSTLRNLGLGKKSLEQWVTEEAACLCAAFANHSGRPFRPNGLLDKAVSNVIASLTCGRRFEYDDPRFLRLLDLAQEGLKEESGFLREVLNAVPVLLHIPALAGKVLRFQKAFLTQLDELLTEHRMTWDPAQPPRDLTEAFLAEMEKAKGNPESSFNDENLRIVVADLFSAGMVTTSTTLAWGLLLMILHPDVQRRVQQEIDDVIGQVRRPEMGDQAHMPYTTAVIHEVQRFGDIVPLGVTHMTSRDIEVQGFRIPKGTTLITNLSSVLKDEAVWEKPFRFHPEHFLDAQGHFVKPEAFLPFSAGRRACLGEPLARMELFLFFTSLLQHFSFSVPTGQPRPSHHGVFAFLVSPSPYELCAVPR
Kallikrein 7, sequence (P49862 30-253, species assumed): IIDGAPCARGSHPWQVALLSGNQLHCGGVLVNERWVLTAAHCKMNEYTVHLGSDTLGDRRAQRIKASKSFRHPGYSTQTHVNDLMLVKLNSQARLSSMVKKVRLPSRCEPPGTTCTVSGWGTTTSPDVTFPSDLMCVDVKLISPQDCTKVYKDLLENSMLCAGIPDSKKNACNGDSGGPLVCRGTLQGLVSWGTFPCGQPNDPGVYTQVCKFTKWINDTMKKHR

O=C(N[C@@H](Cc1ccccn1)C(=O)N[C@@H](CCc1ccccc1)B(O)O)c1cnccn1 [Compound 58, ((R)-3-phenyl-1-((S)-2-(pyrazine-2-carboxamido)-3-(pyridin-2-yl)propanamido)propyl)boronic acid]
M. smegmatis ΔprcAB MIC50 ([1]; 24 h exposure, OD600, concentration inhibiting 50% of growth): 2.7 ± 0.5 µM | improvement of bacterial-growth inhibition compared to compound 1 ([1]; M. smegmatis ΔprcAB): over 2 fold | MIC50 (μM) against M. tuberculosis H37Rv ([2]; 5 days): 2.5 ± 1.3^b μM | MIC90 (μM) against M. tuberculosis H37Rv ([2]; 5 days): 6 ± 2.8 µM (≈ 2.6 µg/mL) | MIC90 concentration relative to MIC50 (fold higher) ([2]; H37Rv): < 3 fold | MIC50 ([2]; Mycobacterium tuberculosis, H37RV, 120 h, 5 days, read-out: MIC50 (μM) against M. tuberculosis H37Rv): 2.5 µM | MIC90 ([2]; Mycobacterium tuberculosis, H37RV, 120 h, 5 days, read-out: MIC90 (μM) against M. tuberculosis H37Rv): 6 µM (≈ 2.6 µg/mL) | MIC50 ([2]; Mycobacterium tuberculosis, H37RV, read-out: MIC50-TB): 1.08 µg/mL | MBC [3]: 50 µM (≈ 21.7 µg/mL) | MIC50 [4]: 1.5 µM (≈ 0.65 µg/mL) | GI50 [5]: 500 µM | GI50 relative to M. tuberculosis growth-inhibitory potency, Vero [6]: 200 fold | GI50 [7]: 500 µM | GI50 relative to M. tuberculosis growth-inhibitory potency, HepG2 [8]: 200 fold | logD [9]: 2.96 | solubility ([10]; aqueous medium at pH 7.4, aqueous buffer, pH 7.4, text, read-out: aqueous solubility): > 400 µg/mL | solubility ([10]; aqueous solution at pH 4, aqueous buffer, thermodynamic, pH 4, read-out: Aq solubility (μg/ml) at pH 4): 422 µg/mL (≈ 973 µM) | solubility ([10]; aqueous solution at pH 7.4, aqueous buffer, thermodynamic, pH 7.4, read-out: Aq solubility (μg/ml) at pH 7.4): 450 µg/mL (≈ 1040 µM) | Papp [11]: 3.5 ×10⁻⁶ cm/s | fraction unbound [12]: 0.0954 | fraction unbound [13]: 0.109 | half-life [14]: > 24 min | half-life [15]: ~8 min | IC50 [16]: > 10 µM | IC50 [17]: > 10 µM | abnormal clinical signs for up to 24 h after injection ([18]; 10 mg/kg i.v.): No abnormal clinical signs were observed | acute side effects during tail vein injection ([18]; 10 mg/kg i.v.): No acute side effects were observed | time concentrations remained above anti-M. tuberculosis MIC50 ([18]; 10 mg/kg i.v.): approximately 4 h | maximum concentration ([18]; 10 mg/kg i.v., plasma): 32.7 µM | AUC0–t(last) in brain ([18]; 100 mg/kg p.o., brain): 286 ng·h/g | AUC0–t(last) in lung ([18]; 100 mg/kg p.o., lung): 16,253 ng · h/g | C0 ([18]; female, ICR, mouse, iv, 10 mg/kg i.v., plasma, read-out: C0 (maximum concentration)): 14200 ng/mL | AUC(0-inf) ([18]; female, ICR, mouse, plasma, iv, 10 mg/kg i.v., read-out: AUC0-inf): 21100 ng·h/mL | AUC(0-t) ([18]; female, ICR, mouse, plasma, iv, 10 mg/kg i.v., read-out: AUC0-t(last)): 20800 ng·h/mL | clearance ([18]; female, ICR, mouse, plasma, iv, 10 mg/kg i.v., read-out: CL (systemic plasma clearance) (converted)): 8.33 mL/min/kg | half-life ([18]; female, ICR, mouse, plasma, iv, 10 mg/kg i.v., read-out: T½ (elimination half-life) (converted)): 222 min | Vd ([18]; female, ICR, mouse, plasma, iv, 10 mg/kg i.v., read-out: Vss): 2.1 L/kg | Vd ([18]; female, ICR, mouse, plasma, iv, 10 mg/kg i.v., read-out: Vz): 2.5 L/kg | Tmax ([18]; female, ICR, mouse, plasma, lung, brain, po, 100 mg/kg p.o., read-out: Tmax (converted)): 10 min | bioavailability ([18]; female, ICR, mouse, plasma, oral, 10 mg/kg p.o. vs 10 mg/kg i.v., read-out: F (absolute oral bioavailability)): 14% | AUC(0-inf) ([18]; female, ICR, mouse, plasma, po, 10 mg/kg p.o., read-out: AUC0-inf): 2870 ng·h/mL | AUC(0-t) ([18]; female, ICR, mouse, plasma, po, 10 mg/kg p.o., read-out: AUC0-t(last)): 2840 ng·h/mL | Tmax ([18]; female, ICR, mouse, plasma, po, 10 mg/kg p.o., read-out: Tmax (converted)): 30 min | half-life ([18]; female, ICR, mouse, plasma, po, 10 mg/kg p.o., read-out: T½ (converted)): 234 min | Cmax ([18]; female, ICR, mouse, po, 10 mg/kg p.o., plasma, read-out: Cmax): 798 ng/mL | AUC(0-inf) ([18]; female, ICR, mouse, po, 100 mg/kg p.o., brain, Fig. 10B, read-out: AUC0-inf, Brain): 378 ng·h/mL | AUC(0-t) ([18]; female, ICR, mouse, po, 100 mg/kg p.o., brain, Fig. 10B, read-out: AUC0-t(last), Brain): 286 ng·h/mL | Cmax ([18]; female, ICR, mouse, po, 100 mg/kg p.o., brain, read-out: Cmax in brain): 93 ng/g | Tmax ([18]; female, ICR, mouse, po, 100 mg/kg p.o., brain, read-out: Tmax, Brain): 12 min | half-life ([18]; female, ICR, mouse, po, 100 mg/kg p.o., brain, read-out: T½, Brain (converted)): 12 min | AUC(0-inf) ([18]; female, ICR, mouse, po, 100 mg/kg p.o., lung, Fig. 10B, read-out: AUC0-inf, Lung): 17000 ng·h/mL | AUC(0-t) ([18]; female, ICR, mouse, po, 100 mg/kg p.o., lung, Fig. 10B, read-out: AUC0-t(last), Lung): 16300 ng·h/mL | Cmax ([18]; female, ICR, mouse, po, 100 mg/kg p.o., lung, read-out: Cmax in lung): 3370 ng/g | Tmax ([18]; female, ICR, mouse, po, 100 mg/kg p.o., lung, read-out: Tmax, Lung): 12 min | half-life ([18]; female, ICR, mouse, po, 100 mg/kg p.o., lung, read-out: T½, Lung (converted)): 18 min | AUC(0-inf) ([18]; female, ICR, mouse, po, 100 mg/kg p.o., plasma, read-out: AUC0-inf, Plasma): 23600 ng·h/mL | AUC(0-t) ([18]; female, ICR, mouse, po, 100 mg/kg p.o., plasma, read-out: AUC0-t(last), Plasma): 22800 ng·h/mL | Cmax ([18]; female, ICR, mouse, po, 100 mg/kg p.o., plasma, read-out: Cmax, Plasma): 6910 ng/mL | Tmax ([18]; female, ICR, mouse, po, 100 mg/kg p.o., plasma, read-out: Tmax, Plasma): 12 min | half-life ([18]; female, ICR, mouse, po, 100 mg/kg p.o., plasma, read-out: T½, Plasma (converted)): 12 min | Dose linearity ([18]; p.o., plasma Cmax and AUC0–inf at 10 and 100 mg/kg): very good | share of panel of 62 proteases inhibited with a submicromolar IC50 ([19]; 2/62): 3% | share of panel of 62 proteases inhibited with an IC50 between 1 to 10 μM ([19]; 5/62): 8% | share of panel of 62 proteases against which active (<10 μM) ([19]; top concentration tested 10 μM): 11% | IC50 [20]: 5.75 µM | IC50 [21]: 6.03 µM | IC50 [22]: 9.31 µM | IC50 [23]: 4.4 µM | IC50 [24]: 0.367 ± 0.103 µM
